In patent publication US20240067617A1 (Albireo AB, priority 2022, published 2024):

Biological target: T1, hIBAT (Homo sapiens, UniProt Q12908)
T1 construct: expressed in transfected cells; kept under Puromycin selection
T1 sequence (Q12908 1-348): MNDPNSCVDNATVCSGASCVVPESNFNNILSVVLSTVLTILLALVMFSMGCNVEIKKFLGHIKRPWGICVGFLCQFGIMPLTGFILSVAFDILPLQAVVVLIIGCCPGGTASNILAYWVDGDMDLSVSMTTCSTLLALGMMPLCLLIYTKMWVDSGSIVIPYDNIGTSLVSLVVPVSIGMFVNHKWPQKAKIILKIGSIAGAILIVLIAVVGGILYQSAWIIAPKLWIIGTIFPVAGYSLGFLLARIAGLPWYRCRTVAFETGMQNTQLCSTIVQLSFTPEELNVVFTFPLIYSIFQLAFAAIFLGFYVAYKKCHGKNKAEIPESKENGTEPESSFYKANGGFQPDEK
Experiment: IBAT (h/m) assay: 3H-taurocholic acid uptake in human IBAT-overexpressing cells
Format: cell-based
Settings: 0.25 μM 3H-taurocholic acid + 5 μM cold taurocholic acid, 20 minutes at 37° C., highest test concentration 10 μM
Summary of the method: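 Human or mouse IBAT-overexpressing cells cultured 48 h, then exposed for 20 min at 37 °C to compounds (top 10 μM, 3-fold, 10 points; 0.2% DMSO) with 0.25 μM 3H-taurocholic acid plus 5 μM cold taurocholic acid. Uptake stopped on ice, cells washed with cold 1 mM taurocholic acid, radioactivity counted by scintillation.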

First: CCCCC1(CC)CN(c2ccccc2)c2cc(SC)c(CSCC(=O)O)cc2S(=O)(=O)C1 (single isomer, unassigned) [2, enantiomer 1]
Second: CCCCC1(C)CN(c2ccccc2)c2cc(SC)c(CSCC(=O)O)cc2S(=O)(=O)C1 (single isomer, unassigned) [5, enantiomer 1]
The IC50 of the first is 3.5-fold lower: 200 pM for the first, 700 pM for the second.

In the case of `CCCCC1(CC)CN(c2ccc(F)cc2)c2cc(SC)c(CSCC(=O)O)cc2S(=O)(=O)C1` (single isomer, unassigned) [7, enantiomer 1], the IC50 is reported as 400 pM.
